Data published in patent US11957759B1, “Rapidly accelerated fibrosarcoma (RAF) degrading compounds and associated methods of use” (Arvinas Operations, Inc., priority 2022, dated 2024).

Tests used:
B-RAF V600E = target: T1, B-RAF V600E (Homo sapiens, UniProt P15056, V600E); assay: Target protein degradation, assay C: T-Rex 293 cells, HA-BRAF_V600E, 384 well format; format: cell-based; settings: T-Rex 293 HA-BRAF_V600E cells, 24 hours, Examples 83-269; for DC50: Assay C; for Dmax: T-REx-293, Assay C
T1 construct: expressed in transfected cells; host or cells: T-Rex 293 cells (Invitrogen #R71007)
T1 sequence (P15056 whole entry V600E): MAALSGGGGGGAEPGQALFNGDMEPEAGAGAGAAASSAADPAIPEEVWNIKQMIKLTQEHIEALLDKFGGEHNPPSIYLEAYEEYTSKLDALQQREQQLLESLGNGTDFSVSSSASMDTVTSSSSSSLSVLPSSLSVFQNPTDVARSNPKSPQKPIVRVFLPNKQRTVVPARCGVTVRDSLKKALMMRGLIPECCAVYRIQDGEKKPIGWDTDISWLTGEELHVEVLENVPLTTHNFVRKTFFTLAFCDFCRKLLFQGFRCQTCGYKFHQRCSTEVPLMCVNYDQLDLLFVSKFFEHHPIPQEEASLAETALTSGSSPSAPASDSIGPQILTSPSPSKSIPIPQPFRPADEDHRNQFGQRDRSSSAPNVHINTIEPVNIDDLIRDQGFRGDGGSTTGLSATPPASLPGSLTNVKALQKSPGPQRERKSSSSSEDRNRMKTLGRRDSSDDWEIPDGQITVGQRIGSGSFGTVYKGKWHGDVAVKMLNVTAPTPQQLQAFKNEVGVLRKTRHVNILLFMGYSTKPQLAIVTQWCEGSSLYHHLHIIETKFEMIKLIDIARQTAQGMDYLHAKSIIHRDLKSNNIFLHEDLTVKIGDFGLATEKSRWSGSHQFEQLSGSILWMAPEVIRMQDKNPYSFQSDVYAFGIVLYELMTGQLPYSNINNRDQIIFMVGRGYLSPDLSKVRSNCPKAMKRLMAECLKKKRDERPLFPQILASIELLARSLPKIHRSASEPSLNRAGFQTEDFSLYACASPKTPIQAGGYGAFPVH
Procedure, shortened: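 T-Rex 293 cells stably expressing doxycycline-induced (1 ng/mL) HA-BRAF V600E were treated 24 h at 37 °C with compound (300 nM–5 pM, 11 points, 0.5% DMSO). HA immunofluorescence was quantified by high-content imaging to give DC50 and Dmax (% of control); nuclei counts versus DMSO gauged toxicity.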

B-RAF G466V = target: T2, B-RAF G466V (Homo sapiens, UniProt P15056, G466V); assay: Target protein degradation, assay D: T-Rex 293 cells, HA-BRAF_G466V, 384 well format; format: cell-based; settings: T-Rex 293 HA-BRAF_G466V cells, 24 hours, Examples 83-269; for DC50: Assay D; for Dmax: T-REx-293, Assay D
T2 construct: expressed in transfected cells; host or cells: T-Rex 293 cells (Invitrogen #R71007)
T2 sequence (P15056 whole entry G466V): as the sequence (P15056 whole entry V600E) above, with G466V, E600V counted along it
Procedure, shortened: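 T-Rex 293 cells stably expressing doxycycline-induced (1 ng/mL) HA-BRAF G466V treated 24 h at 37 °C with PROTACs, 11-point 1:3 dilution, 300 nM to 5 pM final, 0.5% DMSO. Fixed cells immunostained for HA and imaged by high-content microscopy; DC50 and Dmax (% of control) derived, toxicity from nuclei counts versus DMSO.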

Row | DC50 (B-RAF V600E) [nM] | Dmax (B-RAF V600E) [%] | DC50 (B-RAF G466V) [nM] | Dmax (B-RAF G466V) [%] | Compound
1 | 50 to 500 | ≤ 35 | ≤ 1 | ≤ 35 | N#Cc1c(NS(=O)(=O)N2CC[C@@H](F)C2)ccc(F)c1Oc1ccc2ncn(-c3ccc(N4CC(C5CN(c6ccc7c(c6)C(=O)N(C6CCC(=O)NC6=O)C7=O)C5)C4)nc3)c(=O)c2c1 (stereo partly drawn) [Example 158, (3R)-N-(2-cyano-3-{[3-(6-{1'-[2-(2,6-dioxopiperidin-3-yl)-1,3-dioxo-2,3-dihydro-1H-isoindol-5-yl]-[3,3'-biazetidin]-1-yl}pyridin-3-yl)-4-oxo-3,4-dihydroquinazolin-6-yl]oxy}-4-fluorophenyl)-3-fluoropyrrolidine-1-sulfonamide]
2 | 50 to 500 | ≥ 70 | 1 to 10 | 35 to 70 | N#Cc1c(NS(=O)(=O)N2CC[C@@H](F)C2)ccc(F)c1Oc1ccc2ncn(-c3ccc(N4CCN(CC5CN(c6cc(F)c7c(c6)CN(C6CCC(=O)NC6=O)C7=O)C5)CC4)cc3)c(=O)c2c1 (stereo partly drawn) [Example 247, (3R)—N-{2-cyano-3-[(3-{4-[4-({1-[2-(2,6-dioxopiperidin-3-yl)-7-fluoro-1-oxo-2,3-dihydro-1H-isoindol-5-yl]azetidin-3-yl}methyl)piperazin-1-yl]phenyl}-4-oxo-3,4-dihydroquinazolin-6-yl)oxy]-4-fluorophenyl}-3-fluoropyrrolidine-1-sulfonamide]
3 | 50 to 500 | 35 to 70 | 1 to 10 | 35 to 70 | N#Cc1c(NS(=O)(=O)N2CC[C@@H](F)C2)ccc(F)c1Oc1ccc2ncn(-c3ccc(N4CCN(CC5(F)CCN(c6ccc7c(c6)CN([C@H]6CCC(=O)NC6=O)C7=O)CC5)CC4)cc3)c(=O)c2c1 [Example 223, (3R)-N-(2-cyano-3-{[3-(4-{4-[(1-{2-[(3S)-2,6-dioxopiperidin-3-yl]-1-oxo-2,3-dihydro-1H-isoindol-5-yl}-4-fluoropiperidin-4-yl)methyl]piperazin-1-yl}phenyl)-4-oxo-3,4-dihydroquinazolin-6-yl]oxy}-4-fluorophenyl)-3-fluoropyrrolidine-1-sulfonamide]
4 | 50 to 500 | 35 to 70 | 1 to 10 | ≤ 35 | N#Cc1c(NS(=O)(=O)N2CC[C@@H](F)C2)ccc(F)c1Oc1ccc2ncn(-c3ccc(N4CC(CN5CC(c6ccc7c(c6)CN([C@H]6CCC(=O)NC6=O)C7=O)C5)C4)cc3)c(=O)c2c1 [Example 204]

More lines, now with the values behind:

Row | Compound | DC50 (B-RAF V600E) [nM] | Dmax (B-RAF V600E) [%] | DC50 (B-RAF G466V) [nM] | Dmax (B-RAF G466V) [%]
5 | N#Cc1c(NS(=O)(=O)N2CC[C@@H](F)C2)ccc(F)c1Oc1ccc2ncn(-c3cnc(N4CCC(CN5CC6(CCN(c7ccc8c(c7)CN(C7CCC(=O)NC7=O)C8=O)CC6)C5)CC4)nc3)c(=O)c2c1 (stereo partly drawn) [Example 132, (3R)-N-{2-cyano-3-[(3-{2-[4-({7-[2-(2,6-dioxopiperidin-3-yl)-1-oxo-2,3-dihydro-1H-isoindol-5-yl]-2,7-diazaspiro[3.5]nonan-2-yl}methyl)piperidin-1-yl]pyrimidin-5-yl}-4-oxo-3,4-dihydroquinazolin-6-yl)oxy]-4-fluorophenyl}-3-fluoropyrrolidine-1-sulfonamide] | 50 to 500 | 35 to 70 | ≤ 1 | 35 to 70
6 | N#Cc1c(NS(=O)(=O)N2CC[C@@H](F)C2)ccc(F)c1Oc1ccc2ncn(-c3cnc(N4CCC(C5CN(c6ccc7c(c6)C(=O)N(C6CCC(=O)NC6=O)C7=O)C5)CC4)nc3)c(=O)c2c1 (some centres unmarked) [Example 155] | > 500 |  | 1 to 10 | ≤ 35
7 | N#Cc1c(NS(=O)(=O)N2CC[C@@H](F)C2)ccc(F)c1Oc1ccc2ncn(C3COC4(CCN(C(=O)CC5(O)CCN(c6ccc7c(c6)CN([C@H]6CCC(=O)NC6=O)C7=O)CC5)CC4)C3)c(=O)c2c1 (stereo partly drawn) [Example 180, (3R)—N-{2-cyano-3-[(3-{8-[2-(1-{2-[(3S)-2,6-dioxopiperidin-3-yl]-1-oxo-2,3-dihydro-1H-isoindol-5-yl}-4-hydroxypiperidin-4-yl)acetyl]-1-oxa-8-azaspiro[4.5]decan-3-yl}-4-oxo-3,4-dihydroquinazolin-6-yl)oxy]-4-fluorophenyl}-3-fluoropyrrolidine-1-sulfonamide] | 50 to 500 | 35 to 70 | > 30 | 35 to 70
8 | COc1ccc(N2CCC(CN3CCN(c4ccc(-n5cnc6ccc(Oc7c(F)ccc(NS(=O)(=O)N8CC[C@@H](F)C8)c7C#N)cc6c5=O)cn4)CC3)CC2)cc1C(=O)NC1CCC(=O)NC1=O (stereo partly drawn) [Example 141, 5-(4-{[4-(5-{6-[2-cyano-6-fluoro-3-({[(3R)-3-fluoropyrrolidin-1-yl]sulfonyl}amino)phenoxy]-4-oxo-3,4-dihydroquinazolin-3-yl}pyridin-2-yl)piperazin-1-yl]methyl}piperidin-1-yl)-N-(2,6-dioxopiperidin-3-yl)-2-methoxybenzamide] | 50 to 500 | ≤ 35 | 1 to 10 | ≤ 35
9 | N#Cc1c(NS(=O)(=O)N2CCC(F)C2)ccc(F)c1Oc1ccc2ncn(-c3ccc(N4CCN(CC5CN(c6ccc7c(c6)CN(C6CCC(=O)NC6=O)C7=O)C5)CC4)cc3)c(=O)c2c1 (centres unmarked) [Example 194, N-{2-cyano-3-[(3-{4-[4-({1-[2-(2,6-dioxopiperidin-3-yl)-1-oxo-2,3-dihydro-1H-isoindol-5-yl]azetidin-3-yl}methyl)piperazin-1-yl]phenyl}-4-oxo-3,4-dihydroquinazolin-6-yl)oxy]-4-fluorophenyl}-3-fluoropyrrolidine-1-sulfonamide] | 50 to 500 | ≤ 35 | 1 to 10 | 35 to 70
10 | N#Cc1c(NS(=O)(=O)N2CC[C@@H](F)C2)ccc(F)c1Oc1ccc2ncn(-c3ccc(N4CCN(CC5CCN(c6cc7c(c(OC(F)(F)F)c6)C(=O)N(C6CCC(=O)NC6=O)C7)CC5)CC4)cc3)c(=O)c2c1 (stereo partly drawn) [Example 265, (3R)-N-{2-cyano-3-[(3-{4-[4-({1-[2-(2,6-dioxopiperidin-3-yl)-1-oxo-7-(trifluoromethoxy)-2,3-dihydro-1H-isoindol-5-yl]piperidin-4-yl}methyl)piperazin-1-yl]phenyl}-4-oxo-3,4-dihydroquinazolin-6-yl)oxy]-4-fluorophenyl}-3-fluoropyrrolidine-1-sulfonamide] | 50 to 500 | 35 to 70 | 10 to 30 | 35 to 70
11 | N#Cc1c(NS(=O)(=O)N2CC[C@H](F)C2)ccc(F)c1Oc1ccc2ncn(-c3ccc(N4CCN(CC5CN(c6ccc7c(c6)CN([C@H]6CCC(=O)NC6=O)C7=O)C5)CC4)cc3)c(=O)c2c1 [Example 195, (3S)-N-(2-cyano-3-{[3-(4-{4-[(1-{2-[(3S)-2,6-dioxopiperidin-3-yl]-1-oxo-2,3-dihydro-1H-isoindol-5-yl}azetidin-3-yl)methyl]piperazin-1-yl}phenyl)-4-oxo-3,4-dihydroquinazolin-6-yl]oxy}-4-fluorophenyl)-3-fluoropyrrolidine-1-sulfonamide] | 50 to 500 | ≤ 35 | 1 to 10 | ≤ 35
12 | N#Cc1c(NS(=O)(=O)N2CC[C@@H](F)C2)ccc(F)c1Oc1ccc2ncn(-c3ccc(N4CCN(CC5CC6(C5)CN(c5ccc7c(c5)CN([C@H]5CCC(=O)NC5=O)C7=O)C6)CC4)cc3)c(=O)c2c1 [Example 179, (3R)—N-(2-cyano-3-{[3-(4-{4-[(2-{2-[(3S)-2,6-dioxopiperidin-3-yl]-1-oxo-2,3-dihydro-1H-isoindol-5-yl}-2-azaspiro[3.3]heptan-6-yl)methyl]piperazin-1-yl}phenyl)-4-oxo-3,4-dihydroquinazolin-6-yl]oxy}-4-fluorophenyl)-3-fluoropyrrolidine-1-sulfonamide] | 50 to 500 | ≥ 70 | 1 to 10 | ≥ 70
